Earlier results as cited in patent US20100222262A1, “SUBSTITUTED 1, 3-CYCLOPENTADIONE ATTENUATED ENDOTHELIAL INFLAMMATION AND ENDOTHELIAL-MONOCYTE INTERACTIONS” (METAPROTEOMICS, LLC, priority 2008, published 2010).

System: 85 Kinases
Conditions: not given

Compound | G10 (Gini coefficient) | hit rate (>50% Inhibition)
CC[C@H](CO)Nc1nc(NCc2ccccc2)c2ncn(C(C)C)c2n1 [Roscovitine] | 0.744 | 10
C[S+]([O-])c1ccc(-c2nc(-c3ccncc3)c(-c3ccc(F)cc3)[nH]2)cc1 (stereo not drawn) [SB203580] | 0.621 | 17

Same assay, conditions: 85 kinases; Concn 0.001 uM

Compound | G10 (Gini coefficient) | hit rate (>50% Inhibition)
COc1cc2ncnc(Nc3cccc(Br)c3)c2cc1OC [PD153035] | 0.616 | 0

Same assay, conditions: 85 kinases; Concn 1 uM

Compound | G10 (Gini coefficient) | hit rate (>50% Inhibition)
O=C1Cc2c([nH]c3ccc([N+](=O)[O-])cc23)-c2ccccc2N1 [Alsterpaullone] | 0.633 | 22
CCCCCCOC(=O)[C@]1(O)C[C@@H]2O[C@@]1(C)n1c3ccccc3c3c4c(c5c6ccccc6n2c5c31)C(=O)NC4 [KT5720] | 0.423 | 33
O=C(O)c1cc(N(Cc2ccccc2O)Cc2cc(O)ccc2O)ccc1O [Lavendustin A] | 0.726 | 0
O=C(O)c1cc(N(Cc2ccccc2O)Cc2ccccc2O)ccc1O [Lavendustin B] | 0.515 | 0
CC(C)(C)n1nc(-c2ccc(Cl)cc2)c2c(N)ncnc21 [PP2] | 0.722 | 14
Nc1ncnc2c1cnn2-c1ccccc1 [PP3] | 0.634 | 0
Cn1cc(C2=C(c3cn(CCCSC(=N)N)c4ccccc34)C(=O)NC2=O)c2ccccc21 [Ro31-8220] | 0.432 | 39
CN(C)S(=O)(=O)c1ccc2c(c1)/C(=C/c1cc3c([nH]1)CCCC3)C(=O)N2 [SU6656] | 0.607 | 19
CN[C@@H]1C[C@H]2O[C@@](C)([C@@H]1OC)n1c3ccccc3c3c4c(c5c6ccccc6n2c5c31)C(=O)NC4 [Staurosporine] | 0.093 | –

Same assay, conditions: 85 kinases; Concn 10 uM

Compound | G10 (Gini coefficient) | hit rate (>50% Inhibition)
N#CC(C#N)=Cc1ccc(O)c(O)c1 [AG18] | 0.680 | 1
N#CC(C#N)=C(N)/C(C#N)=C/c1cc(O)c(O)c(O)c1 [AG183] | 0.460 | 14
N#C/C(=C\c1ccc(O)c(O)c1)C(=O)c1ccc(O)c(O)c1 [AG538] | 0.417 | 17
CC(C)(C)c1cc(C=C(C#N)C#N)cc(Br)c1O [AG1024] | 0.568 | 11
COc1cc2ncc(-c3ccccc3)nc2cc1OC [AG1296] | 0.498 | 4
COc1cc2ncnc(Nc3cccc(Cl)c3)c2cc1OC [AG1478] | 0.500 | 25
O=C(O[C@@H]1Cc2c(O)cc(O)cc2O[C@@H]1c1cc(O)c(O)c(O)c1)c1cc(O)c(O)c(O)c1 [EGCG] | 0.495 | 21
O=c1c(-c2ccc(O)cc2)coc2cc(O)cc(O)c12 [Genistein] | 0.582 | 0
O=S(=O)(NCCNC/C=C/c1ccc(Br)cc1)c1cccc2cnccc12 [H89] | 0.442 | 34
O=S(=O)(c1cccc2cnccc12)N1CCCNCC1 [HA1077] | 0.650 | 19
CO[C@H]1[C@@H](OC)C[C@H](C)[C@@H](OC)C2=CC(=O)C=C(NC(=O)/C(C)=C/C=C\[C@H](OC)[C@@H](OC(N)=O)/C(C)=C/[C@@H]1C)C2=O [Herbimycin A] | 0.534 | 0
O=c1cc(O)cc(/C=C/c2ccc(O)c(O)c2)o1 [Hispidin] | 0.790 | 2
O=C1c2ccccc2-c2n[nH]c3cccc1c23 [JNK inh II] | 0.445 | 35
O=C1NCc2c1c1c3ccccc3[nH]c1c1[nH]c3ccccc3c21 [K252c] | 0.236 | 58
O=C(NOCC1CC1)c1ccc(F)c(F)c1Nc1ccc(I)cc1Cl [PD184352] | 0.802 | 1
CC(=O)c1c(O)c(C)c(O)c(Cc2c(O)c3c(c(C(=O)/C=C/c4ccccc4)c2O)OC(C)(C)C=C3)c1O [Rottlerin] | 0.595 | 3
Oc1ccc(-c2nc(-c3ccncc3)c(-c3ccc(F)cc3)[nH]2)cc1 [SB202190] | 0.553 | 29
CCOc1cc(/C=C(\C#N)C(N)=O)cc(CSc2ccccc2)c1O [ST638] | 0.568 | 14
C[C@@H](N)[C@H]1CC[C@H](C(=O)Nc2ccncc2)CC1 [Y27632] | 0.628 | 13
Cc1ccc(NC(=O)c2cccc(N(C)C)c2)cc1NC(=O)c1ccc(O)cc1 [ZM336372] | 0.635 | 11
Calphostin C | 0.606 | 2

Same assay, conditions: 85 kinases; Concn 50 uM

Compound | G10 (Gini coefficient) | hit rate (>50% Inhibition)
COc1cc(/C=C/C(=O)CC(=O)/C=C/c2ccc(O)c(OC)c2)ccc1O [Curcumin] | 0.417 | 38
Cn1cnc2c(NCc3ccccc3)nc(NCCO)nc21 [Olomoucin] | 0.556 | 13
